# Test results reported in patent publication US10434077B2, “Glycolic acid and/or D-lactic acid for the treatment of neurodegenerative diseases” (MAX-PLANCK-GESELLSCHAFT ZUR FOERDERUNG DER WISSENSCHAFTEN …, priority 2014, dated 2019).
# Entries after “also recorded” stand apart in the source; their conditions may differ. Structures can show the parent of a compound that is named as a salt. Where two headings read alike, the source gives them in different places.
# Experiments:
# DJ-1 RNAi HeLa cells [1] = assay: Mitotic rounding pressure of DJ-1 RNAi HeLa cells (AFM microcantilever); assay type: cell-based, human; settings: for rescue of the lower pressure phenotype in low or no glucose medium: HeLa kept 2 or more passages in low or no glucose medium before RNAi, measured 1 hour after addition; for rescue of the reduced rounding pressure of mitotic DJ-1 RNAi cells: HeLa, substance added to medium, concentration not given; for rescue of the lower pressure phenotype at 10 mM: RNAi-treated mitotic HeLa cells, 10 mM supplement
# Procedure: (§1) HeLa-Kyoto cells stably expressing histone H2B-EGFP and mCherry-CAAX (clone 2B4), their parental cells, and HeLa-Kyoto expressing mouse DJ-1 transgene were used. Also, mouse embryonic fibroblast (MEF) (Pham et al., 2010) cells were used. Cells were maintained in DMEM supplemented with 10% fetal bovine serum (FBS), 2 mM GlutaMAX, 100 unit/ml penicillin, 100 μg/ml streptomycin, plus additional antibiotics for the transgene (0.5 mg/ml Geneticin for H2B-EGFP and mouse DJ-1 BAC transgene; 0.5 pug/ml puromycin for mCherry-CAAX), at 37° C. in a 5% CO2 environment. The DMEM with high glucose (5 g/1) was used unless specifically mentioned (e.g. FIG. 14). For atomic force microscopy (AFM) measurements of mammalian cells, a CO2-independent medium containing 4 mM sodium bicarbonate and 20 mM HEPES Was used. HeLa Cells Were RNAi-transfected with 160 nM endoribonuclease-digested small interfering RNA (MISSION esiRNA, Sigma) using oligofectamine reagent (Invitrogen). Paraquat (PQ^2+) was added 24 hours after RNAI. Cells were assayed after 48 hours from RNAI.
# (§2) Cell rounding pressure analysis with microcantilevers Cells were grown on a glass-base dish (FD35, World Precision Instruments) with a silicon spacer, which was prepared from μ-Chamber 12 well (ibidi), in the center. Medium was replaced with the CO2-independent medium, then the dish was mounted on the stage of a light microscope (AxioObserver Z1 or Axiovert200, Zeiss) equipped with a 20× objective (Plan Apochromat, NA=0.80). To measure the force of the mitotic cell, a tipless microcantilever (NSC12/CSC37-B with a nominal spring constant of 0.3 N/m, MikroMasch, Estonia) mounted on a glass block of the AFM head (NanoWizard I or II, JPK instruments, Berlin) was used. Setup and calibration were done before every experiment; see Stewart et al (Stewart at al., 2012) for the details of the procedures. In a quick force measurement illustrated in FIG. 5A, the cantilever was set at […] above the glass dish and moved over the mitotically arrested cells to measure the equilibrium force. Measuring the cellular force and pressure through mitosis was done as described (Stewart at al., 2012, Stewart at al., 2011). Otherwise the cell pressure and volume were measured in a constant-height assay, as illustrated in FIG. 5B: the cantilever was first set at 14 μm height and placed over a metaphase cell to record rounding force. The cantilever was then brought down to 8 μm height at 0.1 μmu/sec, to measure peak and equilibrium forces. The maximal cross-section area of the cell was measured from the DIC or mCherry-CAAX image to calculate cell pressure and volume. Calculation of cell pressure and volume, and the contact area to the Cantilever was done as described (Stewart et al., 2012; Stewart et al., 2011). In every experiment, RNAi penetrance was confirmed by lower pressure of MYH9 RNAI-treated cells (Toyoda at al., 2011).
# [2] = toxicology study; cited from earlier work
# [3] = estimated; cited from earlier work
# [4] = system: mitotic MEF cells (wild type and DJ-1 knock-out); assay: Mitotic rounding pressure of mouse embryonic fibroblasts (AFM); assay type: cell-based; settings: for rescue of the reduced rounding pressure of mitotic DJ-1-deficient MEFs: DJ-1 knock-out MEFs, concentration not given; for rescue of the lower pressure phenotype at 10 mM: mitotic DJ-1 KO MEF cells, measured after 1 hour; for rescue of the lower pressure phenotype at 10 mM / effect on pressure of mitotic WT MEFs (negative effects on cell mechanics): 10 mM supplement; for effect on pressure of mitotic WT MEFs (negative effects on cell mechanics): wild type MEFs
# Procedure: as §1, §2
# [5] = system: dopaminergic neurons from DJ-1 knock out mice; assay: In vitro survival of primary dopaminergic (TH+) neurons, DJ-1 knock out; assay type: cell-based, mouse; settings: DJ-1 KO/mutant; 3 mM glucose, 10 mM GA, 10 mM DL
# Procedure: (§3) Briefly, brain mesencephalons from E14.5 C57JBL6 or DJ-1 embryos were dissected under the microscope and digested with Trypsin-EDTA (Sigma-Aldrich). The trypsin reaction was stopped by adding the basic medium (BM) containing Neurobasal A medium (Gibco), 1 mg/ml penicillin/streptomycin, 10% (v/v) fetal calf serum (Invitrogen) and 2 mM L-glutamine and cells were mechanically dissociated using a fire-polished Pasteur pipette. Medium was fully replaced by centrifuging for 5 min. at 1200 rpm, aspiring the supernatant and adding 8 ml of the fresh BM to the pellet. […] The same volume of medium containing the different treatment substances was added 4 hours after plating to obtain the following treatment concentrations: control, 3 mM glucose, 10 mM GA, 10 mMDL and 10 mM LL. 24 hours later ⅓ of the medium was replaced with fresh BM. On DIV3 (day-in-vitro-culture 3) half of the medium was replaced with B27 medium containing Neurobasal A medium, 1 mg/ml penicillin/streptomycin, 2 mM L-Glutamine (Sigma-Aldrich) and B-27 supplement (Life Technologies) and on DIV5 all medium was replaced by B27 medium.
# (§4) Dopaminergic TH^+ neurons were observed using an inverted fluorescence microscope (Axiovert 200M, Zeiss) under a 10× objective (PlanApo, NA=0.45). The diameter of every well was scanned in two perpendicular directions (i.e. top to bottom and left to right) and total TH^+ neurons were counted for every well.
# [6] = system: primary mesencephalic dopaminergic neurons from wild type mouse embryos; assay: In vitro survival of primary dopaminergic (TH+) neurons, wild type; assay type: cell-based; settings: 3 mM glucose, 10 mM GA, 10 mM DL, 10 mM LL, TH+ cells relative to no supplement
# Procedure: as §3, §4
# [7] = system: C. elegans ΔΔdjr double mutant and glod-4 single mutant larvae; assay type: in vivo
# Procedure: (Brenner, 1974). […] All mutants were outcrossed at least twice.
# Mitochondria staining was performed as previously described. Briefly, MitoTracker Deep Red or CMXROS (M22426, M7512, Life Technologies) were dissolved in DMSO at a concentration of 5 mM and kept at −20° C. as a stock solution. On the day of microscopy worms were incubated in a 1:1000 diluted MitoTracker for 45 min at room temperature. Worms were then paralyzed with 1 mM Levamizol (Sigma-Aldrich), placed on slides covered with a thin layer of NGM medium on top of which the coverslip (22×22 mm, Menzel-Glaser #1) was fixed using nail lack.
# Microscopy images from live paralyzed worm larvae stained with MitoTracker were taken using a confocal microscope (LSM510, Zeiss, Germany). Samples were excited using a 514 (MitoTracker CMXRos) or a 647 (MitoTracker Deep Red) nm lasers and two channels, one BP505-550 or LP650 and the BF channel were used to acquire the images. Gain was maintained between 450 and 515 for all samples to ensure the detection of signal intensity differences.
# [8] = system: DJ-1 GLO1 double RNAi-treated cells; assay: Mitotic rounding pressure of DJ-1 GLO1 double RNAi-treated cells (AFM); assay type: cell-based, human; settings: both glyoxalases DJ-1 and GLO1 knocked down
# Procedure: as §1, with “HeLa Cells Were RNAi-transfected with 160 nM endoribonuclease-digested small interfering RNA (MISSION esiRNA, Sigma) using oligofectamine reagent (Invitrogen). Paraquat (PQ^2+) was added 24 hours after RNAI. Cells were assayed after 48 hours from RNAI.” left out
# Cell rounding pressure analysis with microcantilevers Cells were grown on a glass-base dish (FD35, World Precision Instruments) with a silicon spacer, which was prepared from μ-Chamber 12 well (ibidi), in the center. […] Otherwise the cell pressure and volume were measured in a constant-height assay, as illustrated in FIG. 5B: the cantilever was first set at 14 μm height and placed over a metaphase cell to record rounding force. […] The maximal cross-section area of the cell was measured from the DIC or mCherry-CAAX image to calculate cell pressure and volume. […]
# [9] = system: C. elegans larvae (ΔΔdjr, glod-4)
# Procedure: (A) The differential expression of djr-1.1, djr-1.2 and glod-4 was tested by RT-PCR in four replicates. […] (B) Length of the worms treated with PQ^2+. Bars and error bars show the mean and SD, respectively. […] Every strain was compared to its control at different PQ^2+ concentrations by two-way ANOVA followed by Tukey's honestly significant differences (HSD) test. (C) Worm larvae treated with PQ or control. Scale bar, 250 μm. (D) survival of the worm larvae treated with 200 μM paraquat and 1 mM of the Indicated supplements. Bars and error bars show the mean and SD, respectively. […] Every strain was compared to its own control by two-way ANOVA followed by Tukey's HSD test. Data were normalized by Freeman-Tukey's double arcsine transformation prior to ANOVA. *p<0.05; **p<0.01; ***p<0.001.
# All C. elegans strains were maintained on NGM agar plates seeded with Escherichia coli NA22 at 15° C. […] Mutant strains djr-1.1(tm918), djr-1.2(tm951) and glod4(tm1266) were obtained from National Bioresource Project, Japan. Wild type (N2) and daf-2 mutant strains were obtained from Caenorhabditis Genetics Center, USA. All mutants were outcrossed at least twice. DJ-1 double mutant djr-1.1(tm918), djr-1.2(tm951), abbreviated as ΔΔdjr, was achieved by crossing both single mutants. This strain was then further crossed to daf-2 to generate daf-2; ΔΔdjr triple mutant.
# DJ-1 RNAi HeLa cells [10] = assay type: cell-based, human; settings: for rescue of the circular mitochondrial phenotype: paraquat-treated DJ-1 RNAi HeLa cells, supplements for 24 hours
# Procedure: as §1
# To film the osmotically challenged HeLa cells, a DeltaVision system (Applied Precision) was used, equipped with an Olympus IX-71 Inverted microscope and a 40× (UPIanApo, NA=1.00) objective. Time-lapse images were acquired at 1-min intervals except during osmotic shock treatment (equal volume of water for hypotonic shock; equal volume of the AFM medium containing 2.86% (w/v) xylose for hypertonic shock). Deconvolved and maximally projected images were analyzed manually on Image.J to annotate the radius and the volume of the round objects (i.e. mitotic cells), assuming that the cells were spherical (Stewart et al., 2011). To image mitochondria of HeLa cells, MitoTracker Red CMXRos was added at 150 nM and fixed with 3% (v/w) paraformaldehyde in PBS, 1 mM MgCl2, and 5 mM EGTA. Chromatin was counter-stained by 1 μg/ml Hoechst33342. They were imaged on the DeltaVision system using a 60× objective (PlanApo N, NA=1.42, Olympus), and deconvolved and maximally projected images were used for the analysis. Due to high background of MitoTracker in the center of the cell, mitochondria in a 15×15 um area in the periphery were manually annotated on Image.J software.
# [11] = system: primary dopaminergic neurons from wild-type E14.5 embryos treated with PQ2+; settings: 12.5 μM PQ2+ for 72 hours, 10 mM supplement
# Procedure: Briefly, brain mesencephalons from E14.5 C57JBL6 or DJ-1 embryos were dissected under the microscope and digested with Trypsin-EDTA (Sigma-Aldrich). The trypsin reaction was stopped by adding the basic medium (BM) containing Neurobasal A medium (Gibco), 1 mg/ml penicillin/streptomycin, 10% (v/v) fetal calf serum (Invitrogen) and 2 mM L-glutamine and cells were mechanically dissociated using a fire-polished Pasteur pipette. Medium was fully replaced by centrifuging for 5 min. at 1200 rpm, aspiring the supernatant and adding 8 ml of the fresh BM to the pellet. […] The same volume of medium containing the different treatment substances was added 4 hours after plating to obtain the following treatment concentrations: control, 3 mM glucose, 10 mM GA, 10 mMDL and 10 mM LL. 24 hours later ⅓ of the medium was replaced with fresh BM. […]
# as §4
smiles,measurement,setting,value
"NC(=O)c1ccc(N)nc1 [6-aminonicotinamide, reference compound]",effect on the glucose-mediated rescue of pressure in DJ-1 RNAi cells,"DJ-1 RNAi HeLa cells [1]; mitotic HeLa, measured after 1 hour",inhibited
"CC(O)C(=O)O (stereo not shown) [lactic acid, 2-hydroxypropanoic acid]",amount declared as harmless,[2],about 8 g/day
OCCOCCO [diethylene glycol],minimum toxic dose,[3],0.14 mg glycolic acid per kg of body weight
"O=C(O)CO [GA, 2-hydroxyethanoic acid]",rescue of the reduced rounding pressure of mitotic DJ-1-deficient MEFs,[4],could rescue the reduced pressure
same,rescue of the lower pressure phenotype at 10 mM,[4],rescued the lower pressure phenotype
same,effect on pressure of mitotic WT MEFs (negative effects on cell mechanics),[4],decreases pressure
same,survival of dopaminergic neurons from DJ-1 knock out mice,[5],could stimulate neuronal survival; also recorded: stimulate the survival
same,in vitro survival of dopaminergic (TH+) neurons,[6],stimulated; also recorded: stimulate the survival
same,in vitro survival of dopaminergic (TH+) neurons,[6]; listed as Glycolate,support viability
same,reversal of circular mitochondria and diminished MitoTracker staining,[7]; paraquat-treated ΔΔdjr double mutant and glod-4 single mutant larvae,reversed
same,rescue of the lower pressure phenotype in low or no glucose medium,DJ-1 RNAi HeLa cells [1],rescue of the lower pressure phenotype was observed
same,rescue of the reduced rounding pressure of mitotic DJ-1 RNAi cells,DJ-1 RNAi HeLa cells [1],could rescue the reduced pressure
same,rescue of the lower pressure phenotype at 10 mM,DJ-1 RNAi HeLa cells [1]; measured after 1 hour,rescued the lower pressure phenotype
same,rescue of the pressure phenotype in DJ-1 and GLO1 double knock-down cells,[8],could rescue
same,restoration of viability of ΔΔdjr mutant larvae,[9]; in vivo,restored
same,rescue of the circular mitochondrial phenotype,DJ-1 RNAi HeLa cells [10],rescued
same,rescue of the circular mitochondrial phenotype,DJ-1 RNAi HeLa cells [10]; listed as glycolate,rescue mitochondria structure
"C[C@@H](O)C(=O)O [DL, D-(−)-lactic acid]",rescue of the reduced rounding pressure of mitotic DJ-1-deficient MEFs,[4],could rescue the reduced pressure
same,rescue of the lower pressure phenotype at 10 mM,[4],rescued the lower pressure phenotype
same,survival of dopaminergic neurons from DJ-1 knock out mice,[5],could stimulate neuronal survival; also recorded: stimulate the survival
same,in vitro survival of dopaminergic (TH+) neurons,[6],stimulated; also recorded: stimulate the survival
same,in vitro survival of dopaminergic (TH+) neurons,[6]; listed as D-lactate,support viability
same,rescue of the lower pressure phenotype in low or no glucose medium,DJ-1 RNAi HeLa cells [1],rescue of the lower pressure phenotype was observed
same,rescue of the reduced rounding pressure of mitotic DJ-1 RNAi cells,DJ-1 RNAi HeLa cells [1],could rescue the reduced pressure
same,rescue of the lower pressure phenotype at 10 mM,DJ-1 RNAi HeLa cells [1]; measured after 1 hour,rescued the lower pressure phenotype
same,rescue of the pressure phenotype in DJ-1 and GLO1 double knock-down cells,[8],could rescue
same,rescue of the circular mitochondrial phenotype,DJ-1 RNAi HeLa cells [10],rescued
same,rescue of the circular mitochondrial phenotype,DJ-1 RNAi HeLa cells [10]; listed as D-lactate,rescue mitochondria structure
same,rescue of the toxic effect of paraquat on dopaminergic neurons,[11],significantly rescue the toxic effect of paraquat
"CC(=O)C(=O)O [pyruvate, 2-oxopropanoic acid salt, reference compound]",rescue of the reduced rounding pressure of mitotic DJ-1 RNAi cells,DJ-1 RNAi HeLa cells [1],"neither pyruvate, which is produced from glucose, nor glutamine, which can enter the Krebs cycle, rescued the DJ-1 pressure phenotype"
same,rescue of the circular mitochondrial phenotype,DJ-1 RNAi HeLa cells [10],cannot rescue the circular phenotype
"C[n+]1ccc(-c2cc[n+](C)cc2)cc1 [paraquat, reference compound]",effect of paraquat on mitochondria of worm larvae,[7]; reproductive larvae of C. elegans,disrupted mitochondria
same,effect of paraquat on viability of glod-4 mutant larvae,"[9]; glod-4, 200 μM paraquat",not affected
same,effect of paraquat on viability of ΔΔdjr mutant larvae,"[9]; ΔΔdjr, 200 μM paraquat",decreased viability
same,effect of paraquat on mitochondrial structure,"DJ-1 RNAi HeLa cells [10]; low doses of paraquat, DJ-1 RNAi HeLa cells",disrupted mitochondrial structure
"NC(=O)CC[C@H](N)C(=O)O [glutamine, reference compound]",rescue of the reduced rounding pressure of mitotic DJ-1 RNAi cells,DJ-1 RNAi HeLa cells [1],"neither pyruvate, which is produced from glucose, nor glutamine, which can enter the Krebs cycle, rescued the DJ-1 pressure phenotype"
"C[C@H](O)C(=O)O [LL, L-(+)-lactic acid, reference compound]",rescue of the reduced rounding pressure of mitotic DJ-1-deficient MEFs,[4],had no effect
same,rescue of the lower pressure phenotype at 10 mM,[4],"but not LL, rescued the lower pressure phenotype"
same,effect on pressure of mitotic WT MEFs (negative effects on cell mechanics),[4],decreases pressure
same,rescue of the reduced rounding pressure of mitotic DJ-1 RNAi cells,DJ-1 RNAi HeLa cells [1],had no effect
